In ChEMBL document CHEMBL1143695, “Synthesis and biological studies of novel 2-aminoalkylethers as potential antiarrhythmic agents for the conversion of atrial fibrillation” (J Med Chem, 2007):
The source made the active and inactive calls. The rule behind the calls is not given here.

Key:
[1] = biological target: T1, Potassium voltage-gated channel subfamily B member 1 (Rattus norvegicus, UniProt P15387); assay: Inhibition of rat potassium channel Kv2.1 by patch-clamp method
T1 sequence (P15387 whole entry): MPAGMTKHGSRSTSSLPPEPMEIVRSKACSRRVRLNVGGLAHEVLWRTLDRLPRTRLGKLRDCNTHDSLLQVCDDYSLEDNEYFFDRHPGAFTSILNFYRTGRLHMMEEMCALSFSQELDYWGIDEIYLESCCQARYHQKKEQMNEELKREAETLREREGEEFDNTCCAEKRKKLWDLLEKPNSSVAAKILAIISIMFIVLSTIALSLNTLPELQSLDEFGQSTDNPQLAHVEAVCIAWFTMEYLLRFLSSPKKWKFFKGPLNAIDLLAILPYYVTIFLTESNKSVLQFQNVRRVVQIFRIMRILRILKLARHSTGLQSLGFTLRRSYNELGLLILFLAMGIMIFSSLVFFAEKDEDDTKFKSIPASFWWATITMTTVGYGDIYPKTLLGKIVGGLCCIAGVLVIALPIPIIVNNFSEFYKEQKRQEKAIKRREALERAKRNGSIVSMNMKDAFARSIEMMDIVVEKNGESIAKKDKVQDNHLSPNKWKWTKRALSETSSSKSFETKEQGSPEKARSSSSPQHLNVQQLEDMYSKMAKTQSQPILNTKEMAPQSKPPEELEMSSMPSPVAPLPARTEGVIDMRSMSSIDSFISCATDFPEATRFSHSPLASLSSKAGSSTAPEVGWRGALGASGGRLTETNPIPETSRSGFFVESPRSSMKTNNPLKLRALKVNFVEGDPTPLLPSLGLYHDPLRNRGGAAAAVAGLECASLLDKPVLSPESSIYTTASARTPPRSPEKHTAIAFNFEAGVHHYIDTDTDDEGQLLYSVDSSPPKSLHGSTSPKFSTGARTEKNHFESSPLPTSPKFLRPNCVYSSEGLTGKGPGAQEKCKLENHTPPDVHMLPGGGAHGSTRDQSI

Rattus norvegicus [2] = assay: CNS toxicity in iv dosed Sprague-Dawley rat assessed as cumulative convulsion dose; assay type: organism-based; settings: in vivo
[3] = biological target: T2, A-type voltage-gated potassium channel KCND2 (Rattus norvegicus, UniProt Q63881); assay: Inhibition of rat potassium channel Kv4.2 by patch-clamp method
T2 sequence (Q63881 whole entry): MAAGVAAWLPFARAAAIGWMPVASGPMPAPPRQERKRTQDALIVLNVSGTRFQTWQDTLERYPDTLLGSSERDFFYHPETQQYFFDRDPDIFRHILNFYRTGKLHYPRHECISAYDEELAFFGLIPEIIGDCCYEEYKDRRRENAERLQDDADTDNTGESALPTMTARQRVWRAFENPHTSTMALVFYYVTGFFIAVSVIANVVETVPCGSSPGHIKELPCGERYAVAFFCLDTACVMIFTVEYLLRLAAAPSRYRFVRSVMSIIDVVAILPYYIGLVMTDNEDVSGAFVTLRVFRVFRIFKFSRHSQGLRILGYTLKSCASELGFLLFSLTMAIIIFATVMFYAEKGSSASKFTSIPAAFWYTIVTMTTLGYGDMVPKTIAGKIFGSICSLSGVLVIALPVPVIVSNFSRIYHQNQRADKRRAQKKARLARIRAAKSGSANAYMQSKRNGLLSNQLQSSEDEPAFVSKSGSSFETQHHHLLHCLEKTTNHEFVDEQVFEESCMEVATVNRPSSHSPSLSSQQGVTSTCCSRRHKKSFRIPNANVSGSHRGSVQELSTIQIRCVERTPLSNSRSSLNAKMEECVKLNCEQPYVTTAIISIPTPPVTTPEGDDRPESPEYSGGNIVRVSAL

[4] = (§1) Oral bioavailability in Wistar rat at 34 mg/kg. […]; assay type: ADME, organism-based; settings: Wistar, in vivo, oral
[5] = biological target: Potassium voltage-gated channel subfamily A member 5 (Homo sapiens, UniProt P22460); assay: Inhibition of human potassium channel Kv1.5 by patch-clamp method
[6] = (§2) Volume of distribution at steady state in Wistar rat at 17 mg/kg. iv; assay type: ADME, organism-based; set-up: dose 17 mg/kg, route intravenous; settings: Wistar, in vivo, read-out: Vdss
[7] = biological target: Sodium channel protein type 5 subunit alpha (Homo sapiens, UniProt Q14524)
Description: Inhibition of human heart sodium channel Nav1.5 by patch-clamp method

Rattus norvegicus [8] = assay: Antiarrhythmic activity in intravenously dosed Sprague-Dawley rat with ischemia-induced arrhythmia; assay type: functional, Heart
[9] = Clearance in Wistar rat at 17 mg/kg. iv; assay type: ADME, organism-based; set-up: dose 17 mg/kg, route intravenous; settings: in vivo
[10] = (§3) Half life in Wistar rat at 17 mg/kg. iv; assay type: ADME, organism-based; set-up: dose 17 mg/kg, route intravenous; settings: Wistar, in vivo
in vivo = settings: CD1, mouse, iv
Description: Toxicity in intravenously dosed CD1 mouse

Rattus norvegicus [11] = assay: as §1; assay type: ADME, organism-based; settings: in vivo
Canis familiaris [12] = species on record: Canis familiaris; assay: Reduction of heart rate in Mongrel dog vagal atrial fibrillation model; assay type: functional, organism-based; settings: Canis lupus familiaris
[13] = Volume of distribution at steady state in Wistar rat at 12 mg/kg. iv; assay type: ADME, organism-based; set-up: dose 12 mg/kg, route intravenous; settings: in vivo, read-out: Vdss
Canis familiaris [14] = species on record: Canis familiaris; assay: Effect on Mongrel dog vagal atrial fibrillation model assessed as conversion of atrial fibrillation to normal sinus rhythm; assay type: functional, organism-based; settings: Canis lupus familiaris; Cardiac atrium
Canis familiaris [15] = species on record: Canis familiaris; assay: Reduction of blood pressure in Mongrel dog vagal atrial fibrillation model; assay type: functional, organism-based; settings: Canis lupus familiaris
[16] = Oral bioavailability in Wistar rat at 24 mg/kg. […]; assay type: ADME, organism-based; settings: in vivo
[17] = Clearance in Wistar rat at 12 mg/kg. iv; assay type: ADME, organism-based; set-up: dose 12 mg/kg, route intravenous; settings: in vivo
[18] = Half life in Wistar rat at 12 mg/kg. iv; assay type: ADME, organism-based; set-up: dose 12 mg/kg, route intravenous; settings: in vivo
Canis familiaris [19] = species on record: Canis familiaris; assay: Effect on Mongrel dog sterile pericarditis atrial fibrillation model assessed as dose for conversion of atrial fibrillation to normal sinus rhythm; assay type: functional, Canis lupus familiaris, Cardiac atrium
Canis familiaris [20] = species on record: Canis familiaris; assay: Effect on Mongrel dog sterile pericarditis atrial fibrillation model assessed as conversion of atrial fibrillation to normal sinus rhythm; assay type: functional, organism-based; settings: Canis lupus familiaris; Cardiac atrium
Canis familiaris [21] = species on record: Canis familiaris; assay: Effect on Mongrel dog vagal atrial fibrillation model assessed as dose for conversion of atrial fibrillation to normal sinus rhythm; assay type: functional, Canis lupus familiaris, Cardiac atrium
Rattus norvegicus [22] = assay: as §2; assay type: ADME, organism-based; set-up: dose 17 mg/kg, route intravenous; settings: in vivo
Rattus norvegicus [23] = assay: as §3; assay type: ADME, organism-based; set-up: dose 17 mg/kg, route intravenous; settings: in vivo
Rattus norvegicus [24] = assay: Hemodynamic effect in intravenously dosed Sprague-Dawley rat with ischemia-induced arrhythmia assessed as dose producing 10% reduction in systemic blood pressure; assay type: functional

Chain of Potassium voltage-gated channel subfamily A member 5 (P22460 whole entry): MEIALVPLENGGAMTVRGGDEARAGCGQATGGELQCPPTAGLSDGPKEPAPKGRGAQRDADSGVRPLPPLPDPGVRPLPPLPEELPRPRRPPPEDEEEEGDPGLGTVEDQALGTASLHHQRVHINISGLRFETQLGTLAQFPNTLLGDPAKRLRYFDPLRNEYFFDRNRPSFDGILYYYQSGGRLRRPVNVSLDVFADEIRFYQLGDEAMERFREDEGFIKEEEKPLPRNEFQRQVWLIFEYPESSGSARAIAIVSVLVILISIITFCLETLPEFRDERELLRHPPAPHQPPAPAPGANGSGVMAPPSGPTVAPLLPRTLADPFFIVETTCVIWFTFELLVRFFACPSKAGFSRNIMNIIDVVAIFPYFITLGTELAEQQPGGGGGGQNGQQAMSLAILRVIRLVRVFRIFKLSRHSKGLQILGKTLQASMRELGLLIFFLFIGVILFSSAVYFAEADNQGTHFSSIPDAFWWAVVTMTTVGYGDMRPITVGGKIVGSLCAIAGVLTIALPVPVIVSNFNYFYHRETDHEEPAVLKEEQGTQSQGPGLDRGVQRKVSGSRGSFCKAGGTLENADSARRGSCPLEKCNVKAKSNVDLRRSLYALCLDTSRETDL
Chain of Sodium channel protein type 5 subunit alpha (Q14524 whole entry): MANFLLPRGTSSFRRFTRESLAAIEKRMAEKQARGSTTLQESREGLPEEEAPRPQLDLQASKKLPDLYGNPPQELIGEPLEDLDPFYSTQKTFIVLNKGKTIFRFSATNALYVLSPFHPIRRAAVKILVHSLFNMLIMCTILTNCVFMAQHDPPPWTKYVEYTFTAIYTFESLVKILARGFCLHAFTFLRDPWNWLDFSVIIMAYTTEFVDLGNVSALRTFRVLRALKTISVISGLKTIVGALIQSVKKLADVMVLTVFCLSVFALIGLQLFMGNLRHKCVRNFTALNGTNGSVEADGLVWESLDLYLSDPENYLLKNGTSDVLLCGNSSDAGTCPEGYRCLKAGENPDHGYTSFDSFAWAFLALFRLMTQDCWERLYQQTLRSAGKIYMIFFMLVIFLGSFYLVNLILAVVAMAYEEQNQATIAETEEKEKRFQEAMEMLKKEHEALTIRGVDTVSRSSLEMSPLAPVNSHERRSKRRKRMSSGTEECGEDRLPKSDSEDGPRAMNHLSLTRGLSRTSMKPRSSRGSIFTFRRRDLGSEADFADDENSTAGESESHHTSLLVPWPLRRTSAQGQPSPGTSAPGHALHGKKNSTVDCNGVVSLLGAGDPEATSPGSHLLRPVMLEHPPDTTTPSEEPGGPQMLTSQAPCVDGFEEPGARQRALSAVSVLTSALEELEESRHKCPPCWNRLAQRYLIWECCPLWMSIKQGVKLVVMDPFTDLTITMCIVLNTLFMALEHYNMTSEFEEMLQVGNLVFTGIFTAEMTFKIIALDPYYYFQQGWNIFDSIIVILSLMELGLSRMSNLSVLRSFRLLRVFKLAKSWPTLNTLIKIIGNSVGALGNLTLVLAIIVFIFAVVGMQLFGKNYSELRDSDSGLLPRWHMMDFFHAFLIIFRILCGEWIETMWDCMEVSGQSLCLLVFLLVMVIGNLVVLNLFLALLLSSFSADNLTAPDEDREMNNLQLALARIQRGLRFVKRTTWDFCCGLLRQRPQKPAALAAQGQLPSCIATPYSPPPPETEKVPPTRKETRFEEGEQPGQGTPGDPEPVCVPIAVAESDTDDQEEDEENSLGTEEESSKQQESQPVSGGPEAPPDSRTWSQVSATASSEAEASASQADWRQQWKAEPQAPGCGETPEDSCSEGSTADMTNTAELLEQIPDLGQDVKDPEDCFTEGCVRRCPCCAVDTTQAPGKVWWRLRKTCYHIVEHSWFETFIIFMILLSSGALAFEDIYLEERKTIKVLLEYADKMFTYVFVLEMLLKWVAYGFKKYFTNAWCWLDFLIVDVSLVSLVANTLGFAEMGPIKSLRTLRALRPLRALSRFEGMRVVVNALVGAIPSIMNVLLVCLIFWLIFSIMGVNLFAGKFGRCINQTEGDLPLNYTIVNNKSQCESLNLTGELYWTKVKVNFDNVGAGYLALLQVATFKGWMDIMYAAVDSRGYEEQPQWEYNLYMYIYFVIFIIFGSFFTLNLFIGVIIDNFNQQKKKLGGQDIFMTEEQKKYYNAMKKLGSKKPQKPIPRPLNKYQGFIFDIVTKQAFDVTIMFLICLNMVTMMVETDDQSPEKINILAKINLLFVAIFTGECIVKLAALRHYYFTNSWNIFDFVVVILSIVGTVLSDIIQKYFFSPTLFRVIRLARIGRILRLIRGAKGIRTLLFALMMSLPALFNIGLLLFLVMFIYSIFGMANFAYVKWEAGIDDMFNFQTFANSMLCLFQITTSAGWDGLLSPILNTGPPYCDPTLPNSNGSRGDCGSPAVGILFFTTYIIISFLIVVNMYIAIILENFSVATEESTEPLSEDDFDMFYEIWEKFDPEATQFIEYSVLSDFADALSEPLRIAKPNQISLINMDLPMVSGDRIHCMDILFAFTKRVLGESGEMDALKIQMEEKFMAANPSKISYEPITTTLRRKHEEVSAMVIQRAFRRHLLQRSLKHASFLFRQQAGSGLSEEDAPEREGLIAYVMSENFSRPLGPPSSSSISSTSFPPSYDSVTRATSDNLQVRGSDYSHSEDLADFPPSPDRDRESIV

| Compound | IC50 [1] [µM] | Activity (Rattus norvegicus [2]) [µmol/kg] | IC50 [3] [µM] | IC50 [5] [µM] | Vd [6] [L/kg] | IC50 [7] [µM] | ED50 (Rattus norvegicus [8]) [µmol/kg/min] | clearance [9] [mL/min/kg] | half-life [10] [h] | LD50 (in vivo) [µmol/kg] | F (Rattus norvegicus [11]) [%] | Activity (Canis familiaris [12]) | Vd [13] [L/kg] | Activity (Canis familiaris [15]) | bioavailability [16] [%] | clearance [17] [mL/min/kg] | half-life [18] [h] | Activity (Canis familiaris [19]) [µmol/kg] | Activity (Canis familiaris [20]) | other results |
| --- | --- | --- | --- | --- | --- | --- | --- | --- | --- | --- | --- | --- | --- | --- | --- | --- | --- | --- | --- | --- |
| O=C1CCN([C@H]2CCCC[C@@H]2OCCc2cccc3ccccc23)C1 | 8 | 150 | 9 | 7.7 | 2.6 | 13 | 1.9 | 30.2 | 1 |  |  |  |  |  |  |  |  |  |  | bioavailability [4]: 32% |
| O=C1CCN([C@@H]2CCCC[C@H]2OCCc2cccc3ccccc23)C1 (stereo in doubt; 26) | 2.8 | 225 | 8.9 | 4.3 | 4.5 | 25 | 0.4 | 38.7 | 6.3 | 227 | 58 |  |  |  |  |  |  |  |  |  |
| Clc1ccc(CCO[C@@H]2CCCC[C@H]2N2CCOCC2)cc1Cl | 2.4 | 118 | 11 | 3.6 |  | 15 | 1.5 |  |  | 228 |  | inactive | 19 | inactive | 7 | 48.5 | 4.5 | 10 | Active | Activity (Canis familiaris [14]): Active; Activity (Canis familiaris [21]): 17 µmol/kg |
| O=C1CCN([C@@H]2CCCC[C@H]2OCCc2cccc3ccccc23)C1 (stereo in doubt; 40) | 6 | 193 | 11 | 5.9 |  | 11 | 1.2 |  |  |  | 6 |  |  |  |  |  |  |  |  | Vdss (Rattus norvegicus [22]): 8.3 L/kg; t1/2 (Rattus norvegicus [23]): 3.8 h |
| c1ccc2c(CCO[C@@H]3CCCC[C@H]3N3CCOCC3)cccc2c1 | 3.2 | 93 | 17 | 1.3 |  | 4 | 0.8 |  |  | 42 |  | inactive | 29 | inactive | 4 | 50.1 | 6.5 | 8 | Active |  |
| CCCCc1oc2ccccc2c1C(=O)c1cc(I)c(OCCN(CC)CC)c(I)c1 [AMIODARONE] |  |  |  |  |  |  |  |  |  |  |  |  |  |  |  |  |  |  |  | Activity (Rattus norvegicus [24]): 4 µmol/kg/min |
